Among the data in PubChem BioAssay (NCI) are GI50 and TGI values, retold here.

Each structure is given as a SMILES string.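 Where inhibition never reached the appropriate level, the endpoint shown equals the highest concentration tested. Otherwise, values were interpolated linearly from a five-concentration, 48-hour dose response in 96-well plates. The concentration for 50% growth inhibition is given as GI50. At the TGI there is no net growth.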

Common to all, as to experiment: inhibition of tumour cell growth, NCI panel, 48 h
The subject of experiment [1] is A498 renal.
Experiment [2] has as its system ACHN renal.
Experiment [3] relates to CAKI-1 renal.
Experiment [4] relates to HCT-116 colon.
Experiment [5] deals with MDA-MB-435.
Experiment [6] concerns MOLT-4 leukemia.
Experiment [7] has as its system RPMI-8226 leukemia.
Experiment [8] has as its system RXF 393 renal.
Experiment [9] concerns SF-295 CNS.
For experiment [10], the system named is UO-31 renal.

As to `CN(C)c1cc2c(Nc3ccc4nc(Cc5ccccc5)[nH]c4c3)ncnc2cn1`, the GI50 was above 13.9 µM in [1]; 11.8 µM in experiment [2]; 9.82 µM in experiment [3]; 13.1 µM in experiment [4]; above 20.9 µM in experiment [5]; above 25 µM in experiment [6]. Moreover, the GI50 was 11.4 µM in experiment [7], 12 µM in experiment [8], above 12.7 µM in experiment [9] and 12.2 µM in experiment [10]. The TGI in experiment [1], in experiment [2], in experiment [3], in [4], in [5] and in [6] was above 25 µM throughout. Also, the TGI in experiment [7] is above 25 µM; in [8], above 25 µM; in [9] it was above 18.9 µM; in experiment [10], above 25 µM.

On to `CCS(=O)(=O)c1ccc(OC)c(Nc2ncc(-c3cccc(-c4ccccc4F)c3)o2)c1`, for which the GI50 is 1.07 µM in [1]; 13.1 µM in [2]; 10.8 µM in experiment [3]; above 22.9 µM in [4]; above 25 µM in experiment [5]; above 25 µM in [6]. The GI50 in experiment [7] was 23.9 µM; in [8], 2.45 µM; in experiment [9] it was 10.1 µM; in [10] it was 1.48 µM. The TGI in experiment [1] is 7.54 µM; in experiment [2], above 25 µM; in experiment [3], above 25 µM; in [4], above 25 µM; in experiment [5], above 25 µM; in experiment [6] it was above 25 µM. Besides, the TGI is above 25 µM in experiment [7], above 17.9 µM in experiment [8], above 25 µM in experiment [9] and 20.3 µM in [10].

Regarding `CCN(CC)CC(O)CNc1ccc(NCC(O)CCl)c2c1C(=O)c1ccccc1C2=O` (centres undefined), the TGI stood at 21 µM in [1]; 16.3 µM in [2]; 21.9 µM in experiment [3]; 14.5 µM in [4]; 18.6 µM in experiment [5]; 8.82 µM in [6]. In addition, the TGI in experiment [7] stood at 26.6 µM; in [8], 26.6 µM; in experiment [9] it was 22.1 µM; in experiment [10], 17.9 µM.

Consider `COc1cc(C2=Nc3c/c(=C\c4c(O)[nH]c5ccc(Cl)cc45)ccc3=N2)cc(OC)c1OC`, for which the GI50 was 29.4 µM in [1]; 6.67 µM in [2]; 5.5 µM in [3]; 1.56 µM in [4]; 1.73 µM in experiment [5]; 2.43 µM in [6]. Moreover, the GI50 in experiment [7] was 2.04 µM; in [8], 2.78 µM; in experiment [9] it was 11.7 µM; in [10], 2.96 µM. The TGI is above 100 µM in [1]; 24.2 µM in experiment [2]; 27.8 µM in [3]; 3.54 µM in experiment [4]; 3.86 µM in experiment [5]; 12.9 µM in experiment [6]. For the same molecule, the TGI amounted to 5.77 µM in experiment [7], 7.38 µM in experiment [8], 29.7 µM in experiment [9] and 16.1 µM in experiment [10].

Regarding `COC(=O)C1=C(C(=O)Nc2cccnc2)C2OC1(C(Cc1ccccc1)Oc1ccccc1)C1OC21` (centres undefined), the GI50 in experiment [1] was 11.2 µM; in experiment [2], 1.49 µM; in experiment [3], 1.78 µM; in experiment [4] it was 2.01 µM; in experiment [5], 3.79 µM; in experiment [6], 1.75 µM. Also, the GI50 was 2.14 µM in [7], 1.71 µM in experiment [8], 14.6 µM in [9] and 1.24 µM in experiment [10]. The TGI in experiment [1] amounted to 23.8 µM; in experiment [2], 3 µM; in experiment [3], 4 µM; in experiment [4] it was 4.23 µM; in [5], 13.6 µM; in [6], 5.2 µM. Moreover, the TGI in experiment [7] was found to be 6 µM; in experiment [8], 3.22 µM; in experiment [9] it was 28.6 µM; in [10], 2.49 µM.

For `Nc1ccn(C2OC(CO[P+](=O)OC3C(CO[P+](=O)OC4C(CO[P+](=O)OC5C(CO[P+](=O)OC6C(CO[P+](=O)OC7C(CO[P+](=O)OC8C(CO[P+](=O)OC9C(CO[P+](=O)OC%10C(CO[P+](=O)OC%11C(CO)OC(n%12ccc(N)nc%12=O)C%11(F)F)OC(n%11ccc(N)nc%11=O)C%10(F)F)OC(n%10ccc(N)nc%10=O)C9(F)F)OC(n9ccc(N)nc9=O)C8(F)F)OC(n8ccc(N)nc8=O)C7(F)F)OC(n7ccc(N)nc7=O)C6(F)F)OC(n6ccc(N)nc6=O)C5(F)F)OC(n5ccc(N)nc5=O)C4(F)F)OC(n4ccc(N)nc4=O)C3(F)F)C(O)C2(F)F)c(=O)n1` (centres undefined), the TGI in experiment [1], in experiment [4], in experiment [5], in [8] and in experiment [9] was above 100 µM each time. Further, the GI50 in experiment [8] was 0.0618 µM.

`Nc1ccccc1C#Cc1ccccc1C#Cc1ccccc1N`: the GI50 in experiment [1] is 6 µM; in experiment [2] it was 14 µM; in [3] it was 4.41 µM; in [4], 6.32 µM; in [5], 1.31 µM; in experiment [6], 2.12 µM. In addition, the GI50 is 9.74 µM in experiment [8], 3.13 µM in [9] and 6.34 µM in experiment [10]. For the same molecule, the TGI in experiment [1] was determined as 19.8 µM; in [2] it was 29.7 µM; in experiment [3], 18.5 µM; in [4], 21.5 µM; in [5] it was 4.39 µM; in experiment [6] it was 11.9 µM. Further, the TGI in experiment [8] amounted to 32 µM; in experiment [9], 10.5 µM; in experiment [10], 22.5 µM.

For `NC(Cc1cc(Br)c(O)c(Br)c1)C(=O)O` (centres undefined), the TGI in [1], in experiment [2], in [3], in [4], in experiment [5] and in experiment [6] was above 100 µM each time. In addition, the TGI in experiment [7], in experiment [8] and in [9] was above 100 µM each time.

For the molecule `COc1ccc(Nc2nc(NCc3ccccc3)c3ccccc3n2)cc1`, the GI50 is 2.44 µM in experiment [1]; 3.38 µM in experiment [2]; 3.69 µM in experiment [3]; 1.92 µM in experiment [5]; 2.12 µM in experiment [6]; 1.85 µM in experiment [7]. The GI50 is 4.78 µM in experiment [9] and 5.09 µM in experiment [10]. For the same molecule, the TGI amounted to 13.9 µM in [1]; 14.1 µM in [2]; 14 µM in experiment [3]; 3.85 µM in [5]; 5.28 µM in experiment [6]; 4.85 µM in [7]. Also, the figures for the TGI in experiment [9] and in experiment [10] were 23.4 µM and 19.8 µM, respectively.
